Measured values published in ChEMBL document CHEMBL1250518, “Nonsteroidal dissociated glucocorticoid agonists containing azaindoles as steroid A-ring mimetics” (J Med Chem, 2010).

Legend:
[1] = target: T1, Glucocorticoid receptor (Homo sapiens, UniProt P04150); assay: Binding affinity to glucocorticoid receptor expressed in baculovirus-infected insect cells using tetramethylrhodamine labeled Dexamethasone by fluorescence polarization microplate assay
T1 sequence (P04150 whole entry): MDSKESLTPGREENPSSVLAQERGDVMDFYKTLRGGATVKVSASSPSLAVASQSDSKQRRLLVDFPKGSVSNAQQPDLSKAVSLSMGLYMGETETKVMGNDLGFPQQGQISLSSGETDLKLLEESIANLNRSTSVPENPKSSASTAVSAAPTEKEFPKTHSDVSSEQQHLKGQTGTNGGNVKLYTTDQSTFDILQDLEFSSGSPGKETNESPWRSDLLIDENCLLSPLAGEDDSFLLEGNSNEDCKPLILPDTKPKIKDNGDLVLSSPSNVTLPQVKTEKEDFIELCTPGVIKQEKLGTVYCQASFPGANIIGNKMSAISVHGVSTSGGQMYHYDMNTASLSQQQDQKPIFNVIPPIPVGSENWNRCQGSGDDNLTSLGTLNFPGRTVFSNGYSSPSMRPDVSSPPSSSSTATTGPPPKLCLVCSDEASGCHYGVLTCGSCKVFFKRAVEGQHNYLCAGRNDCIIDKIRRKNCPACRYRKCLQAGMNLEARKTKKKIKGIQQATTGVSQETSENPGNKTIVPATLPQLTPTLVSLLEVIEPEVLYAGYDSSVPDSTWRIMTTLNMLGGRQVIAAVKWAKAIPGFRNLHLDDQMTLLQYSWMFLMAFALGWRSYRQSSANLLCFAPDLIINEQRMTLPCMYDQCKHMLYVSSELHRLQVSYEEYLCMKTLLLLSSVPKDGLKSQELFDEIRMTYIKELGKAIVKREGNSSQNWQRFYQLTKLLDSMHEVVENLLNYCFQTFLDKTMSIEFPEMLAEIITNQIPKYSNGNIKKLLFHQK

[2] = target: T2, Progesterone receptor (Homo sapiens, UniProt P06401); assay: Binding affinity to progesterone receptor expressed in baculovirus-infected insect cells using tetramethylrhodamine labeled RU-486 by fluorescence polarization microplate assay
T2 sequence (P06401 whole entry): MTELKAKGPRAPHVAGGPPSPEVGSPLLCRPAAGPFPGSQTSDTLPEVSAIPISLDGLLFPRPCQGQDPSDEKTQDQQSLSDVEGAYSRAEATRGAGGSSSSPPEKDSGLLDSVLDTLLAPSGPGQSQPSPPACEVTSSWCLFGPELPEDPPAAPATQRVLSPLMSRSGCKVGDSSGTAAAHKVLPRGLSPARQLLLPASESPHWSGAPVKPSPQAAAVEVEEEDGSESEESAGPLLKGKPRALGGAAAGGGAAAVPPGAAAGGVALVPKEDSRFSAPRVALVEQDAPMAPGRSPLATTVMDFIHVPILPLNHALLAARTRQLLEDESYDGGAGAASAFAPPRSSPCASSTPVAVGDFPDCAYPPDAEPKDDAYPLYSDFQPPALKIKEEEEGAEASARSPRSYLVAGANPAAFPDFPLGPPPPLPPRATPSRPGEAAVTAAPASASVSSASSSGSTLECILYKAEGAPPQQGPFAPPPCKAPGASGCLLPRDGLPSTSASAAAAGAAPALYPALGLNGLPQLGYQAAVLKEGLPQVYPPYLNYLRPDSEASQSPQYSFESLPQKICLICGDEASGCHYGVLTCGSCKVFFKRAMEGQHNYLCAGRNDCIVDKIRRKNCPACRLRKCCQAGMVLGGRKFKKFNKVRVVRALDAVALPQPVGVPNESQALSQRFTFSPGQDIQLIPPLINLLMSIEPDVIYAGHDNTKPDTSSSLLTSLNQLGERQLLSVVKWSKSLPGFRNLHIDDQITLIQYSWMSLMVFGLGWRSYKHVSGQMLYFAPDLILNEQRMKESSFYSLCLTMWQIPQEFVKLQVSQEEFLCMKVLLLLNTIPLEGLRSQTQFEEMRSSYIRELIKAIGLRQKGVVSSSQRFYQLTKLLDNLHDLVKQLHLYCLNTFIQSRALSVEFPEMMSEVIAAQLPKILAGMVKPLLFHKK

[3] = target: T1, Glucocorticoid receptor; assay: Transrepression activity at glucocorticoid receptor in HFF assessed as inhibition of IL-1-induced IL-6 production after 18 to 24 hrs by ELISA; format: cell-based
[4] = Half life in Sprague-Dawley rat at 5 mg/kg, iv; format: ADME, organism-based; design: dose 5 mg/kg, route intravenous; settings: in vivo
[5] = tested on: Rattus norvegicus; assay: Oral bioavailability in Sprague-Dawley rat at 30 mg/kg; format: ADME, organism-based; settings: in vivo
[6] = tested on: Mus musculus; assay: Antiinflammatory activity in po dosed BALB/c mouse assessed as reduction of LPS-induced plasma TNFalpha level administered 1 hr before LPS challenge by ELISA; format: functional
[7] = tested on: Mus musculus; assay: Antiinflammatory effect in collagen and Freund's complete adjuvant-induced B10.RIII mouse arthritis model assessed as inhibition of disease progression at 30 mg/kg, po qd for 5 weeks; format: functional; settings: 840 h
[8] = tested on: Mus musculus; assay: Toxicity in collagen and Freund's complete adjuvant-induced B10.RIII mouse arthritis model assessed as increase of triglyceride level at 30 mg/kg, po qd for 5 weeks; format: organism-based; design: dose 30 mg/kg, route oral; settings: in vivo, 840 h
[9] = tested on: Mus musculus; assay: Toxicity in B10.RIII mouse assessed as increase of triglyceride level at 30 mg/kg, po qd for 5 weeks; format: organism-based; design: dose 30 mg/kg, route oral; settings: in vivo, 840 h

IC50 [1]: 2.1 nM
IC50 [2]: 1200 nM
IC50 [3]: 3.3 nM
half-life [4]: 1.85 h
F [5]: 48%
Structure (SMILES): CC(C)(C[C@@](O)(Cc1cc2ccncc2[nH]1)C(F)(F)F)c1cc(F)ccc1O
ED50 [6]: < 0.3 mg/kg
inhibition in vivo at 30 mg/kg [7]: 92%
Activity [8]: Non-toxic
Activity [9]: Toxic
